Laboratory results taken from patent publication US20260234188A1, “CHEMOKINE-BINDING PEPTIDES” (Oxford University Innovation Limited, priority 2022, published 2026).
Entries after “also recorded” stand apart in the source; their conditions may differ.

Tested on: panel of up to 42 human chemokines
Assay: Phage-display next generation sequencing screen of overlapping hexadecapeptide libraries, chemokines displayed on streptavidin beads
Format: binding
Excerpt: FIG. 1. Exemplar results from phage display screens. Phage-display libraries were constructed and analysed as described in (McLaughlin, 2013) (Tonikian, 2007). […] FIG. 1A, CC chemokines against evasin A library. FIG. 1B, CXC chemokines against the evasin B library. FIG. 1C, CXC and CX3C chemokines against the viral chemokine binding protein library. FIG. 1D, CXC chemokines against the chemokine library. […] Identified hexadecapeptides were mapped to the position in the originating protein (x-axis) and to fold enrichment (log 2 E, left y-axis). Regions of interest (ROI) were defined where the cumulative residue log 2 E, (clog 2 E:r, right y-axis) exceeds the 95% upper confidence interval of the median clog 2 E:r for the entire protein (indicated as a horizontal dotted line in each panel). Proteins are referred to by their UniProt ID.
Hexadecapeptides were identified using a phage-display next generation sequencing approach (McLaughlin, 2013). Libraries containing a total of 55662 overlapping peptides (from the tick chemokine binding proteins shown in Tables 3A and 3B, the viral chemokine binding proteins shown in Table 3C, the human chemokines shown in Table 3 E, and the human/viral chemokine receptors and other chemokine-binding proteins shown in Table 3D) were first constructed, and then screened against a panel of up to 42 human chemokines, as shown in Table 3F.

[1] = log2E greater than 5, chemokines named by first part of UniProt Entry Name, peptides binding complement C5a (control) excluded
[2] = log2E greater than 5, chemokines named by first part of UniProt entry name, C5a (control) binders excluded
[3] = log2E greater than 5, chemokines named by first part of UniProt Entry Name

Row | Substance | Chemokines Bound [1] | Chemokines Bound [3] | other results
1 | CR5776 (FMIFCYTFIVKTLVQA) | CCL1, CCL17,; also recorded: CCL19, CCL20,; also recorded: SDF1, CXL13 |  | 
2 | CR6489 (FWAVDAVANWYFGNFL) | CCL17, CCL18, and CCL22, CCL28, and CXL10, CXL14, and IL8 |  | 
3 | CR11720 (LATFKILICIVWGVMP) |  |  | Chemokines Bound [2]: CCL17, CCL18,; also recorded: CCL19, CCL20,; also recorded: CCL25, CXL10,; also recorded: CXL14
4 | CR17126 (PCGIITSVLAWVTAIL) |  |  | Chemokines Bound [2]: CCL1, CCL20,; also recorded: CCL22, CCL28,; also recorded: X3CL1, CXL10,; also recorded: CXL11, SDF1,; also recorded: CXL14, IL8
5 | CR5262 (FILALVGNTLALWLFI) |  | CCL22, CCL28,; also recorded: SDF1, IL8 | 
6 | CR24107 (TYIILLLTWFAGLIFS) |  | CCL22, CCL25,; also recorded: CXL11 | 
7 | CR10275 (IYLLNLAISDLFFLLT) |  |  | Chemokines Bound [2]: CCL17, CCL18,; also recorded: CCL25, CXL10,; also recorded: CXL13
8 | CR4205 (ELFLAVKIVFSFIWGV) |  | CCL11, CCL17,; also recorded: CCL18, CCL19,; also recorded: CCL2, CCL20,; also recorded: CCL22, CCL25,; also recorded: CCL28, X3CL1,; also recorded: CXL10, CXL11,; also recorded: SDF1, CXL13,; also recorded: CXL14, IL8 | 
9 | VP6289 (MVAVALYAYGLAFRLM) | CCL1, CCL11,; also recorded: CCL15, CCL17,; also recorded: CCL19, CCL2,; also recorded: CCL20, CCL22,; also recorded: CCL25, CCL28,; also recorded: CCL5, CXL10,; also recorded: SDF1, IL8 |  | 
10 | CR24367 (VCILVWLLAFCVSLPD) |  | CCL11, CCL17,; also recorded: CCL18, CCL19,; also recorded: CCL20, CCL22,; also recorded: CCL25, CCL28,; also recorded: CXL10, CXL11,; also recorded: SDF1, CXL13,; also recorded: CXL14, IL8 | 
11 | CR23958 (TVLLSWKVLLTMVWGA) |  | CCL1, CCL18,; also recorded: CCL20, CCL25,; also recorded: CCL28, CXL10,; also recorded: CXL11, SDF1 | 
12 | CR5077 (FGFFIPLMFMIFSYTF) |  | CCL18, X3CL1,; also recorded: CXL14 | 
13 | CR4753 (FAQLVYFIYHAVASYS) |  | CCL2, CXL13, and IL8 | 
14 | CR5737 (FLVVVYSIVSFLGILG) | CCL17, CCL18,; also recorded: CCL19, CCL2,; also recorded: CCL20, CCL22,; also recorded: CCL25, CCL28,; also recorded: X3CL1, CXL10,; also recorded: CXL13, CXL14 |  | 
15 | CR9087 (IIALVVWGLSVIISSS) | CCL1, CCL17,; also recorded: CCL18, CCL19,; also recorded: CCL2, CCL20,; also recorded: CCL22, CCL25,; also recorded: CCL28, X3CL1,; also recorded: CXL10, CXL11,; also recorded: SDF1, CXL13,; also recorded: CXL14, IL8 |  | 
16 | CR1124 (ALIQMLEICIGFVVPF) |  |  | Chemokines Bound [2]: CCL18, CCL19,; also recorded: CCL20
17 | CR7367 (GMPPADEDYSPCMLET) | CCL11, CCL18,; also recorded: CCL19, CCL20 |  | 
18 | CR18189 (QHNLFFLLSLGIILFC) |  |  | Chemokines Bound [2]: CCL17, CCL18,; also recorded: CCL22, CCL25,; also recorded: X3CL1, CXL14
19 | EB1728 (HEDGKKVGLCLSTEYT) | CXL10, SDF1,; also recorded: CXL14 |  | 
20 | CR26001 (VTLTSLAVWGLSLLFA) |  | CCL11, CCL2,; also recorded: CCL28, SDF1 | 
21 | CR7856 (GWVFIFSSIQLCTVVF) | CCL1, CCL19, and CCL20, CCL25, and CXL10, SDF1, and IL8 |  | 
22 | CR8546 (IAAFSWFMLSLPLLFL) | CCL22, CCL28,; also recorded: CXL14 |  | 
23 | CR14316 (LSISLLAEVLMFLFPN) |  |  | Chemokines Bound [2]: CCL17, CCL18,; also recorded: CCL19, CCL2,; also recorded: CCL20, CCL22,; also recorded: CCL25, X3CL1,; also recorded: CXL14
24 | CR8677 (IAYSLISVFGLLGNIL) | CCL2, CXL10,; also recorded: CXL13 |  | 
25 | CR2553 (CGIITSVLAWVTAILA) |  | CCL11, CCL2, and CCL20, CCL22, and CCL28, CCL8, and X3CL1, CXL10, and SDF1, CXL14, and IL8 | 
26 | CR3302 (DLFIGIKIVYSFLWGI) |  | CCL1, CCL17,; also recorded: CCL18, CCL20,; also recorded: CCL22, CCL28,; also recorded: CXL10, CXL11,; also recorded: CXL13, IL8 | 
27 | CR20481 (SGIFFIILLTIDRYLA) |  |  | Chemokines Bound [2]: CCL1, CCL19,; also recorded: CCL20, CCL22,; also recorded: CCL25, CCL28,; also recorded: X3CL1, CXL10,; also recorded: CXL11, SDF1
28 | CR5598 (FLLSLGIILFSYVEIL) | CCL18, CCL19, and CXL10, CXL11, and SDF1, CXL14, and IL8 |  | 
29 | CR21236 (SMILESLFAALVTLIT) |  |  | Chemokines Bound [2]: CCL22, CXL10,; also recorded: CXL11, SDF1,; also recorded: CXL13, IL8
